Measured values from patent EP0606747A1, “Tilmicosin and derivatives for treating gram-positive diseases of aquatic species” (ELI LILLY AND COMPANY, priority 1992, dated 1994).
In brackets after ≈: the same amount, converted by molar mass. Read-outs that look alike come from different tables or passages of the source.

How the values were obtained:
[1] = Test 2: palatability and growth study in Atlantic salmon, medicated diets, four weeks; assay type: in vivo, Atlantic salmon (Salmo salar); settings: all fish at the end of the four-week study
Method: Test 2: Palatability and growth studies in Atlantic salmon.
A trial was conducted to determine the palatability and effect on growth of Atlantic salmon (Salmo salar), St. John River strain, of diets containing various concentrations of tilmicosin. Pre-smolt salmon, each weighing about 50 grams, from a stock certified to be free of bacterial kidney disease, were used. The fish were acclimatized for four weeks. During this period, the fish were in tanks maintained with fresh single-pass flow-through well water, 10±2°C., and a photoperiod of 12/12. Water flow rate was adequate to provide a dissolved oxygen concentration of ≧ 5 mg/liter post feeding and under conditions of normal activity provided a dissolved oxygen concentration of ≧ 8 mg/liter. All fish were fed a standard diet. […]
All fish were fed 3× on weekdays and 1× or 2× on weekend days. […] The trial lasted four weeks, and the following parameters were determined: feed intake feed intake as % of body weight weight gain weight gain as % of body weight feed conversion At the end of the four weeks, the fish were sacrificed and tissue from liver, muscle, and kidney analyzed for tilmicosin by an HPLC assay. […] Quantitative determination of tilmicosin was accomplished by reversed-phase HPLC with a phenylsilyl stationary phase and a U.V. absorption detector at 280 nm. […]

[2] = test system: Renibacterium salmoninarum; test: In vitro evaluation of tilmicosin against Renibacterium salmoninarum (MIC); assay type: cell-based; settings: for MIC: Renibacterium salmoninarum, read-out: minimum inhibitory concentration (MIC)
Method: Test 1: In vitro evaluation of tilmicosin against Renibacterium salmoninarum.
A dozen strains of Renibactenum salmoninarum were obtained and cultured in standard procedures. Eight grew successfully and were employed in the evaluation of tilmicosin.
Tilmicosin was evaluated at various concentrations and the minimum inhibitory concentration (MIC) determined for each of the strains. For three of the strains, the MIC was 1 µg/ml; for the remaining five strains, the MIC was 2 µg/ml.

[3] = Test 3: palatability and growth study in Atlantic salmon, tilmicosin base versus phosphate salt; assay type: in vivo, Atlantic salmon (Salmo salar); settings: 800 mg/kg of diet (free base equivalent), four weeks; cause of death could not be determined
Method: Test 3: Palatability and Growth Studies in Atlantic Salmon, Comparing Tilmicosin Base and Phosphate Salt
A trial was conducted to determine the palatability to Atlantic salmon (Salmo salar), St. John River strain, of diets containing either tilmicosin (free base) or tilmicosin phosphate. Pre-smolt salmon, each weighing about 50 grams, from a certified disease free stock, were used. The salmon, 30 per tank and 9 tanks, were acclimatized for about two weeks. During this period and throughout the trial, the tanks were maintained with fresh single-pass flow-through well water, 2 liters per minute, 12 ± 1°C., and the photoperiod was 12/12. During the acclimatization, all fish were fed a standard feed. Thereafter the salmon in three tanks continued to receive the standard diet, to serve as a control. The salmon in three other tanks received a modified diet containing 800 mg of tilmicosin (free base) per kilogram of diet; the salmon in the last three tanks received a modified diet containing tilmicosin phosphate in an amount equivalent to 800 mg of tilmicosin (free base) per kilogram of diet. […] The trial was continued for a four-week period, during which these parameters were evaluated: feed intake feed intake as % of body weight weight gain weight gain as % of body weight feed conversion All surviving fish were euthanized. […]

With CC[C@H]1OC(=O)C[C@@H](O)[C@H](C)[C@@H](O[C@@H]2O[C@H](C)[C@@H](O)[C@H](N(C)C)[C@H]2O)[C@@H](CCN2C[C@H](C)C[C@H](C)C2)C[C@@H](C)C(=O)/C=C/C(C)=C/[C@@H]1CO[C@@H]1O[C@H](C)[C@@H](O)[C@@H](OC)[C@H]1OC [tilmicosin] as the molecule, how does the Post-mortem examination [1] read?
Its Post-mortem examination is “no gross abnormalities”.

What about the MIC ([2]; remaining five of the eight strains) of the same molecule?
The MIC was 2 µg/mL (≈ 2.3 µM).

What about the MIC ([2]; three of the eight strains) of the same molecule?
The MIC was 1 µg/mL (≈ 1.15 µM).

What about the growth ([2]; lower concentrations down to 0.25 µg/ml) of the same molecule?
The growth was “dramatic reduction in growth”.

For tilmicosin phosphate, which mortality [3] is on record?
The mortality was “One fish from the tank receiving tilmicosin phosphate died”.
